Assay results: patent publication US9956197B2 (priority 2013, dated 2018)

How the values were obtained:
[1] = tested on: Picrotoxin (PIC) induced clonic seizure; assay: animal or person; type: in vivo, ICR mice
[2] = tested on: Lithium-pilocarpine induced status epilepticus; set-up: species or system Sprague-Dawley rats; details: in vivo
[3] = tested on: PTZ (Pentylenetetrazol) induced clonic seizure; assay: animal or person; type: in vivo, ICR mice; details: for PTZ test (ip) in Mice Protection % / PTZ test (ip) in Mice Peak Time: mouse, in vivo
[4] = tested on: ACTH-refractory infantile spasm (behavioral spasms); assay: animal or person; type: in vivo, Sprague-Dawley rats; details: for inhibition in vivo at 60 mg/kg: Rattus norvegicus, ip, read-out: ACTH-refractory IS (ip) Protection %, percentage of activity compared to the vehicle only; for ACTH-refractory IS (ip) Peak Time: rat, in vivo
[5] = tested on: PTZ (Pentylenetetrazol) induced clonic seizure; set-up: species or system SD rats; details: rat, in vivo
[6] = Mus musculus, ip, read-out: PIC (ip) percentage of activity compared to the vehicle only

| Compound | responders at 50 mg/kg [1, 6] [%] | Intervention (rat, iv) Protection % [2] | PTZ test (ip) in Mice Protection % [3] | other results |
| --- | --- | --- | --- | --- |
| CCC(OC(N)=O)C(O)c1ccccc1Cl (racemic) [Compound 8, 1-(2-chlorophenyl)-1-hydroxybutyl-2-carbamate] | 33.3 | ^a46 (50%) |  |  |
| CCCCC(OC(N)=O)C(O)c1ccccc1Cl (racemic) [Compound 14, 1-(2-chlorophenyl)-1-hydroxyhexyl-2-carbamate] | 16.7 |  | ^a20.4 (16.7%) |  |
| CNC(=O)OC(C)C(O)c1ccccc1Cl (racemic) [Compound 29, 1-(2-chlorophenyl)-1-hydroxypropyl-2-N-methylcarbamate] |  |  | ^a20.4 (33.3%) |  |
| CCCNC(=O)OC(C)C(O)c1ccccc1Cl (racemic) [Compound 30, 1-(2-chlorophenyl)-1-hydroxypropyl-2-N-propylcarbamate] | 16.7 |  | ^a20.4 (33.3%) |  |
| CC(C)NC(=O)OC(C)C(O)c1ccccc1Cl (racemic) [Compound 31, 1-(2-chlorophenyl)-1-hydroxypropyl-2-N-isopropylcarbamate] | 16.7 | ^a46 (100%) | ^a20.4 (83.3%) |  |
| CC(OC(=O)NC1CC1)C(O)c1ccccc1Cl (racemic) [Compound 32, 1-(2-chlorophenyl)-1-hydroxypropyl-2-N-cyclopropylcarbamate] |  | ^a46 (100%) | ^a20.4 (16.7%) |  |
| C[C@@H](OC(N)=O)[C@@H](O)c1ccccc1Cl [Compound 4, 1-(2-chlorophenyl)-(S)-1-hydroxypropyl-(R)-2-carbamate] |  | ^a46 (100%) |  | responders at 30 mg/kg [1, 6]: 100%; inhibition in vivo at 60 mg/kg [4]: 24.3%; ACTH-refractory IS (ip) Peak Time [4]: 3 h; PTZ test (ip) in Mice Peak Time ([3]; ip): 0.5 h |
| C[C@H](OC(N)=O)[C@H](O)c1ccccc1Cl [Compound 5, 1-(2-chlorophenyl)-(R)-1-hydroxypropyl-(S)-2-carbamate] |  |  |  | PTZ test (ip) in Mice Peak Time ([3]; ip): 0.5 h |
| CC[C@H](OC(N)=O)[C@@H](O)c1ccccc1Cl [Compound 6, 1-(2-chlorophenyl)-(S)-1-hydroxybutyl-(S)-2-carbamate] | 66.7 | ^a46 (100%) |  | inhibition in vivo at 60 mg/kg [4]: 76.2%; ACTH-refractory IS (ip) Peak Time [4]: 3 h; PTZ test (ip) in Mice Peak Time ([3]; ip): 0.5 h |
| CC(C)[C@H](OC(N)=O)[C@@H](O)c1ccccc1Cl [Compound 9, 1-(2-chlorophenyl)-(S)-1-hydroxy-3-methyl-butyl-(S)-2-carbamate] | 16.7 |  | ^a20.4 (33.3%) |  |
| CCCC[C@H](OC(N)=O)[C@@H](O)c1ccccc1Cl [Compound 12, 1-(2-chlorophenyl)-(S)-1-hydroxyhexyl-(S)-2-carbamate] | 16.7 |  | ^a20.4 (33.3%) |  |
| CCCC[C@@H](OC(N)=O)[C@H](O)c1ccccc1Cl [Compound 13, 1-(2-chlorophenyl)-(R)-1-hydroxyhexyl-(R)-2-carbamate] | 16.7 |  |  |  |
| CNC(=O)O[C@@H](C)[C@@H](O)c1ccccc1Cl [Compound 15, 1-(2-chlorophenyl)-(S)-1-hydroxypropyl-(S)-2-N-methylcarbamate] | 50 | ^a46 (100%) |  | inhibition in vivo at 60 mg/kg [4]: 67.4%; ACTH-refractory IS (ip) Peak Time [4]: 2 h; PTZ test (ip) in Rats Protection % [5]: ^b25 (33.3%) |
| CCCNC(=O)O[C@@H](C)[C@@H](O)c1ccccc1Cl [Compound 16, 1-(2-chlorophenyl)-(S)-1-hydroxypropyl-(S)-2-N-propylcarbamate] |  | ^a46 (100%) |  | PTZ test (ip) in Rats Protection % [5]: ^b30 (33.3%) |
| C[C@H](OC(=O)NC1CC1)[C@@H](O)c1ccccc1Cl [Compound 18, 1-(2-chlorophenyl)-(S)-1-hydroxypropyl-(R)-2-N-cyclopropylcarbamate] |  | ^a46 (66.7%) |  | PTZ test (ip) in Rats Protection % [5]: ^b30 (16.7%) |
| CCCNC(=O)O[C@H](C)[C@H](O)c1ccccc1Cl [Compound 23, 1-(2-chlorophenyl)-(R)-1-hydroxypropyl-(R)-2-N-propylcarbamate] | 16.7 | ^a46 (100%) |  | responders at 20.4 mg/kg ([3]; Mus musculus, ip, read-out: PTZ test (ip) in Mice Protection %): 50% |
| C[C@@H](OC(=O)NC1CC1)[C@H](O)c1ccccc1Cl [Compound 25, 1-(2-chlorophenyl)-(R)-1-hydroxypropyl-(R)-2-N-cyclopropylcarbamate] |  | ^a46 (100%) | ^a20.4 (66.7%) |  |
| C[C@H](OC(N)=O)[C@@H](O)c1ccc(Cl)cc1Cl [Compound 36, 1-(2,4-dichlorophenyl)-(S)-1-hydroxypropyl-(S)-2-carbamate] | 50 |  | ^a20.4 (33.3%) | inhibition in vivo at 60 mg/kg [4]: 37.5%; ACTH-refractory IS (ip) Peak Time [4]: 3 h |
| C[C@H](OC(N)=O)[C@@H](O)c1c(Cl)cccc1Cl [Compound 37, 1-(2,6-dichlorophenyl)-(S)-1-hydroxypropyl-(S)-2-carbamate] |  | ^a46 (100%) |  | ED50 ([1]; Mus musculus, ip, read-out: PIC (ip) ED50): 23.4 mg/kg; PIC (ip) Peak Time ([1]; mice): 0.25 h; inhibition in vivo at 60 mg/kg [4]: 83.8%; ACTH-refractory IS (ip) Peak Time [4]: 3 h; PTZ test (ip) in Mice Peak Time ([3]; ip): 0.25 h |
| C[C@H](OC(N)=O)[C@@H](O)c1cccc(Cl)c1Cl [Compound 38, 1-(2,3-dichlorophenyl)-(S)-1-hydroxypropyl-(S)-2-carbamate] | 50 | ^a46 (50%) |  |  |
| CC[C@H](OC(N)=O)[C@@H](O)c1ccc(Cl)cc1Cl [Compound 39, 1-(2,4-dichlorophenyl)-(S)-1-hydroxybutyl-(S)-2-carbamate] | 66.7 |  |  | PTZ test (ip) in Mice Peak Time ([3]; ip): 0.5 h |
| CC[C@H](OC(N)=O)[C@@H](O)c1c(Cl)cccc1Cl [Compound 40, 1-(2,6-dichlorophenyl)-(S)-1-hydroxybutyl-(S)-2-carbamate] | 66.6 | ^a46 (100%) | ^a20.4 (33.3%) |  |
| CCCC[C@H](OC(N)=O)[C@@H](O)c1ccc(Cl)cc1Cl [Compound 43, 1-(2,4-dichlorophenyl)-(S)-1-hydroxyhexyl-(S)-2-carbamate] | 16.6 |  |  | PTZ test (ip) in Rats Protection % [5]: ^b25 (33.3%) |
| CCCC[C@H](OC(N)=O)[C@@H](O)c1c(Cl)cccc1Cl [Compound 44, 1-(2,6-dichlorophenyl)-(S)-1-hydroxyhexyl-(S)-2-carbamate] | 16.6 |  | ^a20.4 (33.3%) |  |
| C[C@@H](OC(N)=O)[C@H](O)c1ccc(Cl)cc1Cl [Compound 45, 1-(2,4-dichlorophenyl)-(R)-1-hydroxypropyl-(R)-2-carbamate] |  | ^a46 (33.3%) | ^a20.4 (16.7%) | PTZ test (ip) in Rats Protection % [5]: ^b50 (16.7%) |
| C[C@@H](OC(N)=O)[C@H](O)c1c(Cl)cccc1Cl [Compound 46, 1-(2,6-dichlorophenyl)-(R)-1-hydroxypropyl-(R)-2-carbamate] | 33.3 | ^a46 (50%) |  | inhibition in vivo at 60 mg/kg [4]: 78%; ACTH-refractory IS (ip) Peak Time [4]: 3 h |
| C[C@@H](OC(N)=O)[C@H](O)c1cccc(Cl)c1Cl [Compound 47, 1-(2,3-dichlorophenyl)-(R)-1-hydroxypropyl-(R)-2-carbamate] |  |  |  | inhibition in vivo at 60 mg/kg [4]: 91%; ACTH-refractory IS (ip) Peak Time [4]: 3 h |
